What all share (type): cell-based
Test [1] relates to Ly1B50 DLBCL cells. Briefly: Growth inhibition of DLBCL cells, Ly1B50. The following applies: Table 2; BCL-6 independent; 48 hours. How it is done: (§1) 50,000 cells per well were treated for 48 hours with different concentrations of the compounds in 96 well plates, using DMSO as a control. Then, viability was determined with Cell Titer Blue™ (Promega) and growth inhibition was calculated as the percentage of viable cells with respect to cells treated with DMSO alone. GI50 values were determined by dose-response curves.
(§2) 293T cells were grown in Dulbecco's modified Eagles medium supplemented with 10% fetal bovine serum (FBS) (Gemini Bio-Products, Woodland, Calif.) and 1% penicillin-streptomycin. DLBCL cell lines OCI-Ly1, OCI-Ly1-B50, OCI-Ly7, OCI-Ly10 and OCI-Ly19 were grown in 80% Iscove's medium, 20% FBS and penicillin G/streptomycin. DLBCL cell lines Toledo, Farage, SU-DHL4, DOHH-2, SC-1, RCK8, TMD8, HBL-1, Ly3, Karpas 422 and SU-DHL6 were cultured in 90% RPMI medium, 10% FBS, 2 mM glutamine, 10 mM Hepes and penicillin G/streptomycin. All cell lines were cultured at 37° C. in a humidified atmosphere of 5% CO2.

Test [2] relates to Ly7 DLBCL cells. The test can be described thus: Growth inhibition of DLBCL cells, Ly7. The following applies: Table 2, BCL-6 dependent. As to the method:
as §1, §2

Test [3] has as its system Toledo DLBCL cells. Briefly: Growth inhibition of DLBCL cells, Toledo. The settings on record: Homo sapiens, Table 2, BCL-6 independent. As to the method: as §1, §2
Test [4] concerns Ly3 DLBCL cells. Briefly: Growth inhibition of DLBCL cells, Ly3. The settings on record: Table 2; BCL-6 dependent; 48 hours. How it is done:
as §1, §2

Test [5] has as its system SUDHL6 DLBCL cells. Briefly: Growth inhibition of DLBCL cells, SUDHL6. The settings on record: Homo sapiens, SU-DHL-6; Table 2; BCL-6 dependent; 48 hours; read-out: GI50 SUDH6. As to the method:
as §1, §2

For test [6], the system named is Karpas 422 DLBCL cells. Briefly: Growth inhibition of DLBCL cells, Karpas 422. The following applies: Homo sapiens, Table 2, BCL-6 independent, 48 hours, read-out: GI50 Karpas 422. How it is done:
as §1, §2

The subject of test [7] is Ly10 DLBCL cells. Briefly: Growth inhibition of DLBCL cells, Ly10. The settings on record: Table 2, BCL-6 dependent, 48 hours. How it is done: as §1, §2

Drawing on patent US9943506B2, “BCL6 inhibitors as anticancer agents” (Cornell University, priority 2013, dated 2018), this text covers GI50 for 9 molecules.

In general, GI50 refers to the concentration at which growth is held to half of that of the control. Regarding `O=C(O)CCN1C(=O)SC(C2(O)C(=O)Nc3ccc(Cl)cc32)C1=O` (stereo not drawn) [Compound 2023], the GI50 in test [1] was greater than 40 µM; in test [2] (48 hours) it was 21 ± 10 µM; in test [3] (48 hours) it was greater than 40 µM; in test [4], greater than 40 µM; in test [5], 21 ± 3 µM; in test [6], greater than 40 µM. The GI50 in test [7] was greater than 40 µM.
As for `O=C(O)CCN1C(=O)C(C2(O)C(=O)Nc3ccc(Br)cc32)SC1=S` (stereo not drawn) [Compound 2025], the GI50 in test [1] is greater than 40 µM; in test [2] (48 hours), 13 ± 1 µM; in test [3] (48 hours) it was greater than 40 µM; in test [4], greater than 40 µM; in test [5], 14 ± 2 µM; in test [6], 22 ± 7 µM. Besides, halving of growth in test [7] (GI50) required 15 ± 8 µM.
For the molecule `O=C(O)CCN1C(=O)SC(C2(O)C(=O)Nc3ccc(I)cc32)C1=O` (stereo not drawn) [Compound 2027], the GI50 is greater than 40 µM in test [1]; 8 ± 1 µM in test [2] (48 hours); greater than 40 µM in test [3] (48 hours); 14 ± 3 µM in test [4]; 7 ± 1 µM in test [5]; greater than 40 µM in test [6]. For the same molecule, the GI50 in test [7] came to 6 ± 2 µM.
Regarding `O=C(O)CN1C(=O)/C(=C2/C(=O)Nc3ccc(Cl)cc32)SC1=S` [Compound 2031, (Z)-2-(5-(5-Chloro-2-oxoindolin-3-ylidene)-4-oxo-2-thioxothiazolidin-3-yl)acetic acid], the GI50 in test [1], in test [2] (48 h), in test [3] (48 h), in test [4], in test [5] and in test [6] was greater than 40 µM each time. In test [7], this molecule yielded a GI50 greater than 40 µM.
As for `O=C(O)CN1C(=O)/C(=C2/C(=O)Nc3ccc(F)cc32)SC1=S` [Compound 2033, (Z)-2-(5-(5-Fluoro-2-oxoindolin-3-ylidene)-4-oxo-2-thioxothiazolidin-3-yl)acetic acid], the concentration for 50% growth inhibition (GI50) in test [1], in test [2] (48 h), in test [3] (48 h), in test [4], in test [5] and in test [6] was greater than 40 µM in each case. This molecule had a GI50 in test [7] greater than 40 µM.
For `O=C(O)CN1C(=O)/C(=C2/C(=O)Nc3c(F)cccc32)SC1=S` [Compound 2035, (Z)-2-(5-(7-Fluoro-2-oxoindolin-3-ylidene)-4-oxo-2-thioxothiazolidin-3-yl)acetic acid], the GI50 in test [1], in test [2] (48 h), in test [3] (48 h), in test [4], in test [5] and in test [6] was greater than 40 µM each time. Further, in test [7], the 50% growth inhibitory concentration (GI50) is greater than 40 µM.
Consider `O=C(O)CN1C(=O)/C(=C2/C(=O)Nc3c(Cl)cccc32)SC1=S` [Compound 2037, (Z)-2-(5-(7-Chloro-2-oxoindolin-3-ylidene)-4-oxo-2-thioxothiazolidin-3-yl)acetic acid], for which the GI50 in test [1], in test [2] (48 h), in test [3] (48 h), in test [4], in test [5] and in test [6] was greater than 40 µM throughout. The concentration for 50% growth inhibition (GI50) in test [7] was greater than 40 µM.
Consider `O=C(O)CN1C(=O)/C(=C2/C(=O)Nc3c(Cl)cc(Cl)cc32)SC1=S` [Compound 2039, (Z)-2-(5-(5,7-Dichloro-2-oxoindolin-3-ylidene)-4-oxo-2-thioxothiazolidin-3-yl)acetic acid], for which the GI50 in test [1], in test [2] (48 h), in test [3] (48 h), in test [4], in test [5] and in test [6] was greater than 40 µM in each case. The molecule also registered a 50% growth inhibitory concentration (GI50) in test [7] greater than 40 µM.
As for `O=C(O)CN1C(=O)/C(=C2/C(=O)Nc3ccc(Br)cc32)SC1=S` [Compound 2041, (Z)-2-(5-(5-Bromo-2-oxoindolin-3-ylidene)-4-oxo-2-thioxothiazolidin-3-yl)acetic acid], the 50% growth inhibitory concentration (GI50) in test [1], in test [2] (48 h), in test [3] (48 h), in test [4], in test [5] and in test [6] was greater than 40 µM throughout. Further, the GI50 in test [7] was greater than 40 µM.
